Reference: patent publication US20230218573A1, “INDOLE COMPOUNDS FOR THE TREATMENT OF NEURODEGENERATIVE DISEASES” (GALYAN BIO, INC., priority 2020, published 2023)
Read-outs that look alike come from different tables or passages of the source.

Tests used:
[1] = tested on: STHdh 111/111 striatal cells; assay: Cell viability (CellTiter Glo) of heat shocked STHdh 111/111 striatal cells; format: cell-based, mouse; details: STHdh 111/111, 10 µM, 48 hours treatment; for viability at 10 µM: Mus musculus, read-out: Cell Viability striatal cells 3h heat shocked
mHTT = mHTT (Mus musculus, UniProt P42859, DEL28-30/G47A/INS49LLPQPQPP/INS60VA/L56P/P40L); assay: Diffuse mHTT levels in heat shocked STHdh 111/111 striatal cells by immunocytochemistry; details: for remaining activity at 10 µM: 48 h
Chain of mHTT (P42859 with tags, fused parts or gaps DEL28-30/P40L/G47A/INS49LLPQPQPP/L56P/INS60VA): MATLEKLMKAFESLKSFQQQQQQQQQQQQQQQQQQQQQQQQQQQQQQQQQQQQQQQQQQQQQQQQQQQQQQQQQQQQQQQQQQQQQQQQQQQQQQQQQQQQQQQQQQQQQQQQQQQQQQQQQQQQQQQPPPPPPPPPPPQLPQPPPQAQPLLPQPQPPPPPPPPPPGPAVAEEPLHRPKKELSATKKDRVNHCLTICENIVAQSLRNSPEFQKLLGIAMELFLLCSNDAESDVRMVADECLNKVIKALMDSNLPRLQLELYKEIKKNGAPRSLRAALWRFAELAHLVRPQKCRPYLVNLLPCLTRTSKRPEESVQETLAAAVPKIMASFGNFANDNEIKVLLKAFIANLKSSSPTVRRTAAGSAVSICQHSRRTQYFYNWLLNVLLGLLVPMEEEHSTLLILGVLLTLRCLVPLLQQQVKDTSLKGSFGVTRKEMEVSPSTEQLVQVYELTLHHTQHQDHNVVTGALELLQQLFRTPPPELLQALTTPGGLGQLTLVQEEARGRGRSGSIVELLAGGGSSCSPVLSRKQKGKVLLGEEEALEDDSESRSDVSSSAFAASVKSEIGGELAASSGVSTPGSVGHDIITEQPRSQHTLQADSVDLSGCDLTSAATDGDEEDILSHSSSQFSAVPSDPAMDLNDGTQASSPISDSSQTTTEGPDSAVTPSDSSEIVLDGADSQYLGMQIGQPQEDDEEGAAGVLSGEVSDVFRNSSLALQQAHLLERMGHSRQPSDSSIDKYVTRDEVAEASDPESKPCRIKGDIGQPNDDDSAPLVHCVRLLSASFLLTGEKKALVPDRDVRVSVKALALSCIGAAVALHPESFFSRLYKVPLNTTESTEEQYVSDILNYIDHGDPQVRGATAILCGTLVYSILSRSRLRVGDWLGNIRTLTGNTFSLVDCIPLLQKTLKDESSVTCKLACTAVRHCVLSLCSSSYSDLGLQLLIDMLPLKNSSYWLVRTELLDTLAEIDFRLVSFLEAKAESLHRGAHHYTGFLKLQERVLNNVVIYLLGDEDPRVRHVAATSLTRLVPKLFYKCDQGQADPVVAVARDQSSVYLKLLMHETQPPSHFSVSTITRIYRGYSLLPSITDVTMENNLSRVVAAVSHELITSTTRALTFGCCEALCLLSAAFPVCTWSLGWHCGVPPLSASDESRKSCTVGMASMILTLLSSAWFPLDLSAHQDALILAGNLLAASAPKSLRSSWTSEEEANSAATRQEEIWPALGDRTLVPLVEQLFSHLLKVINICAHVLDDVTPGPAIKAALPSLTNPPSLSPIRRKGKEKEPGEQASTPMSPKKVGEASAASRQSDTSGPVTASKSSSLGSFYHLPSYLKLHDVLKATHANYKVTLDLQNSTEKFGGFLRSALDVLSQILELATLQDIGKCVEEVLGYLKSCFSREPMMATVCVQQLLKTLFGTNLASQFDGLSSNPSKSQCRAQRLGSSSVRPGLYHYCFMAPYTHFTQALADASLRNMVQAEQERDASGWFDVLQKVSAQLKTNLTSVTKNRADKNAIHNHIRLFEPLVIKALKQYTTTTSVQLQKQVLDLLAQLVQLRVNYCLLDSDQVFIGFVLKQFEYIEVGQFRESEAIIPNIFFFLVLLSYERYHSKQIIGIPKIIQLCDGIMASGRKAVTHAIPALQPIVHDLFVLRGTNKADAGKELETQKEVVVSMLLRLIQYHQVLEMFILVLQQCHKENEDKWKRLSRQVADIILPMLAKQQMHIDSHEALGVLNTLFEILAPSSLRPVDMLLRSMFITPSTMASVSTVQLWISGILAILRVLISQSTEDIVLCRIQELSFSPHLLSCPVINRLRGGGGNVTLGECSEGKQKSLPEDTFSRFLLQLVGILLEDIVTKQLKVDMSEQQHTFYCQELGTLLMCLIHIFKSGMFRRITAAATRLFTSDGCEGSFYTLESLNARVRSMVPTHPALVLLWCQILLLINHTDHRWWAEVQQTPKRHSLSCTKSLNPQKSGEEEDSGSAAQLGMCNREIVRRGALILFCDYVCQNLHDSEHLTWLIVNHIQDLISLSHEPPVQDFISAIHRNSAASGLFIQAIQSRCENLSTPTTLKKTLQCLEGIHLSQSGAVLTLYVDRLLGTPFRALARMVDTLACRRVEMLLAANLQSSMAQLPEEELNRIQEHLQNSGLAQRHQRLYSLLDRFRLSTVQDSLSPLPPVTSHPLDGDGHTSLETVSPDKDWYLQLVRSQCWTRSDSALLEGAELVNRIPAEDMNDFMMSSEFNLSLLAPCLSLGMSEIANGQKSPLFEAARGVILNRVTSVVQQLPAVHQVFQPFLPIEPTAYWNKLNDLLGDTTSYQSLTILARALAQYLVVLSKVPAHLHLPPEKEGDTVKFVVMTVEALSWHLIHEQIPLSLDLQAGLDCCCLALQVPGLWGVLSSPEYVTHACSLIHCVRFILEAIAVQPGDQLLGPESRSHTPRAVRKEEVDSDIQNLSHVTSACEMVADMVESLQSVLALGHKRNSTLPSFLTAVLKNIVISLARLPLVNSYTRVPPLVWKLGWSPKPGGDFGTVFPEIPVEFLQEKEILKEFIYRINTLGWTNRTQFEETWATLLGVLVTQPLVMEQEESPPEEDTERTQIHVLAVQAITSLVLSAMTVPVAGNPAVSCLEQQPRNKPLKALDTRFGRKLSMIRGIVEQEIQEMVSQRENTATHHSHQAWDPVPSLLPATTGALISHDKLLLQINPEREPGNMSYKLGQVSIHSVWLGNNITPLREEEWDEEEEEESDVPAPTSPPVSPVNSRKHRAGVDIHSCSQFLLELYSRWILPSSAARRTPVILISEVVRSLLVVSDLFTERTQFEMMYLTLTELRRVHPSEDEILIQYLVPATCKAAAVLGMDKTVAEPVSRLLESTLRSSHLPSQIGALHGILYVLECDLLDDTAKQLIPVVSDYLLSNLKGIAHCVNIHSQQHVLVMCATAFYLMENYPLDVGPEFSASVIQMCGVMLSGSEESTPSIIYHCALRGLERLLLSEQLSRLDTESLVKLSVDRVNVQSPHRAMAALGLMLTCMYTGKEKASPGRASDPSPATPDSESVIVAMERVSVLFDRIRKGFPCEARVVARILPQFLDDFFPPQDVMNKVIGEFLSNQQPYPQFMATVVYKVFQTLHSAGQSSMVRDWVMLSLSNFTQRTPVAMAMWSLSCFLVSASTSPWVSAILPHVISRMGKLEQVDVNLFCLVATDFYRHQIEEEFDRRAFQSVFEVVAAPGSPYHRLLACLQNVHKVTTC

STHdh 7/7 striatal cells = assay: Cell viability of heat shocked STHdh 7/7 striatal cells; format: cell-based, mouse; details: 48 hours treatment; for viability at 10 µM: Mus musculus, read-out: Cell Viability striatal cells 3h heat shocked; for Cell Viability striatal cells 3h heat shocked: 10 µM
Protocol: RESULTS - Table 7b summarizes the effect of the compounds on cell viability. STHdh 7/7 were heat shocked for 3 hours and treated for 48 hours with small molecule compounds. Table 2 lists the cell viability in striatal cells after 48 hours.
Effect of Compound 22 on Cell Viability of Wildtype Striatal Neurons - STHdh 7/7 cells are striatal cells that express wildtype huntingtin. These cells were cultured in the same conditions as described above for STHdh 111/111. The neurons were first heat shocked for 3 hours at 41° C. as described above. After 48 hours of treatment with the small molecule Compounds, cell viability was determined using the method described above. The “buffer” control is represents cells treated with a buffer only, without any compounds added. Some of the compounds show higher cell viability in comparison to control heat shocked STHdh 7/7 neurons with buffer and no treatment (FIG. 9).

zebrafish larvae = assay: Zebrafish MPP+ motility model, photomotor assay; format: in vivo; details: MPP+ alone, 500 µM
Protocol: MPP+ selectively targets dopaminergic neurons; the putative mechanism is induction of K+ efflux, cell membrane hyperpolarization and inhibition of neuronal firing. This ultimately leads to an inhibition of complex I, a decrease in ATP production and promotion of the generation of reactive oxygen species upon accumulation in the mitochondria (3). The observed phenotype following exposure to 500 µM from 24 hours post fertilization (hpf) to 120 hpf is characterized by a decrease in movement during lights-on phases of a photomotor assay. In unpublished data below, representative locomotor perturbations of the distance moved and movement frequency is shown.
Six groups were included in each experiment. Immediately after spawning, 40 embryos per group were allocated to a 24-well plate and system water (solvent) was added to all wells. For assessment of neuroprotective potential, Compound 4 was added for a final concentration of 1, 10 and 20 µM (column 4-6). From the following day at 24 hpf, Compound 4 was co-incubated with 500 µM MPP+. MPP+ was prepared immediately prior to incubation and solutions were changed daily. At 120 hpf, drug treatment and MPP+ exposure was ceased and a 3X wash was performed with system water. Larvae were then relocated to 96-well plates for behavioral recording and placed in a separate recording room for 24-hour acclimation. Prior to behavioral recording, wells were fully replenished system water.
Naive group was exposed to solvent only. Vehicle group was exposed to solvent and vehicle corresponding to the vehicle of 20 µM drug solution (0.02% DMSO). MPP+ positive control was exposed to solvent and 500 µM MPP+. All compound groups were treated with the respective vehicle and respective concentration of compound 4.
Behavioral data was recorded from 1 p.m. on 6 dpf until shortly after wakening on 7 dpf. The recording consisted of a photomotor assay in which lights switch off and on in 30-minute intervals between 1 p.m. and 6 p.m., producing a consistent photomotor response. […] Upon lights being turned on again, the larvae cease movement followed by a return to baseline. This cycle is repeated five times. Following the last lights-off phase, constant illumination is presented until lights turn off at 10 p.m. for the night. Lights turn on again at 8 a.m. the following day.
Average movement frequency was measured during 30-minute lights-on phases of photomotor assay. Movement bouts were defined as initiated when velocity exceeded a threshold of 2 mm/s and ceased when velocity fell below 1 mm/s.
Distance moved (mm) was defined as the average distance moved during 30-minute lights-on phases of photomotor assay.
Data was obtained using EthoVision XT (Version 11.5.2016, Noldus) and exported to Microsoft Excel for data analysis. […]

[2] = read-out: mHTT after treatment, 10 µM, 3 h heat shock, 48 hours treatment, in comparison to untreated STHdh 111/111

Structure (SMILES)	viability at 10 µM [1]	also measured
CCc1c(C)[nH]c2ccc(C(=O)NCCN(C)C)cc12 [Compound 1]	111%	remaining activity at 10 µM (mHTT; read-out: mHTT after treatment): 30%
CN(C)CCNC(=O)c1ccc2[nH]c3c(c2c1)CCCC3 [Compound 3]	86%	–
CN(C)CCNC(=O)c1ccc2[nH]c3c(c2c1)CCC3 [Compound 5]	104%	–
CCc1[nH]c2ccc(C(=O)NCCN3CCC3)cc2c1C [Compound 6]	113%	remaining activity at 10 µM (mHTT; read-out: mHTT after treatment): 37%
O=C(NCCN1CCOCC1)c1ccc2[nH]c3c(c2c1)CCC3 [Compound 8]	115%	–
CN1CCN(CCNC(=O)c2ccc3[nH]c4c(c3c2)CCC4)CC1 [Compound 10]	96%	remaining activity at 10 µM (mHTT; read-out: mHTT after treatment): 40%
CCc1[nH]c2ccc(C(=O)NCCN3CCCC3)cc2c1C [Compound 11]	114%	remaining activity at 10 µM (mHTT; read-out: mHTT after treatment): 40%
O=C(NCCN1CCOCC1)c1ccc2[nH]c3c(c2c1)CCCC3 [Compound 12]	106%	remaining activity at 10 µM (mHTT; read-out: mHTT after treatment): 40%
O=C(NCCN1CCCC1)c1ccc2[nH]c3c(c2c1)CCCC3 [Compound 13]	117%	–
O=C(NCCN1CCCC1)c1ccc2[nH]c3c(c2c1)CCC3 [Compound 14]	113%	remaining activity at 10 µM (mHTT; read-out: mHTT after treatment): 41%
CCc1c(C)[nH]c2ccc(C(=O)NCCN3CCN(C)CC3)cc12 [Compound 15]	104%	–
O=C(NCCN1CCCCC1)c1ccc2[nH]c3c(c2c1)CCCC3 [Compound 16]	117%	–
Cc1[nH]c2ccc(C(=O)NCCN3CCC3)cc2c1C [Compound 17, N-(2-(Azetidin-1-yl)ethyl)-2,3-dimethyl-1H-indole-5-carboxamide]	99%	–
CCc1c(C)[nH]c2ccc(C(=O)NCCN3CCCCC3)cc12 [Compound 18]	103%	remaining activity at 10 µM (mHTT; read-out: mHTT after treatment): 44%
CCN(CC)CCNC(=O)c1ccc2c(c1)c(C)c(C)n2C [Compound 19, N-(2-(Diethylamino)ethyl)-1,2,3-dimethyl-1H-indole-5-carboxamide]	76%	remaining activity at 10 µM (mHTT; [2]): 45%
CCN(CC)CCNC(=O)c1ccc2[nH]c(C)c(C)c2c1 [Compound 21, N-(2-(Diethylamino)ethyl)-2,3-dimethyl-1H-indole-5-carboxamide]	87%	viability at 10 µM (STHdh 7/7 striatal cells): 82.6%
CCc1[nH]c2ccc(C(=O)NCCN3CCCCC3)cc2c1C [Compound 23]	84%	–
Cc1c(C)n(C)c2ccc(C(=O)NCCN3CCN(C)C(C)C3)cc12 (centres unmarked) [Compound 25, N-(2-(3,4-Dimethylpiperazin-1-yl)ethyl)-1,2,3-trimethyl-1H-indole-5-carboxamide]	109%	–
CCN(CC)CCNC(=O)c1ccc2[nH]c3c(c2c1)CCCC3 [Compound 26]	82%	remaining activity at 10 µM (mHTT; read-out: mHTT after treatment): 49%
CCN(CC)CCNC(=O)c1ccc2[nH]c3c(c2c1)CCC3 [Compound 27]	66%	remaining activity at 10 µM (mHTT; read-out: mHTT after treatment): 50%
Cc1[nH]c2ccc(C(=O)NCCN3CCCC3)cc2c1C [Compound 29, 2,3-Dimethyl-N-(2-(pyrrolidin-1-yl)ethyl)-1H-indole-5-carboxamide]	103%	viability at 10 µM (STHdh 7/7 striatal cells): 131%
CCc1[nH]c2ccc(C(=O)NCCN3CCOCC3)cc2c1C [Compound 30]	55%	–

Structure (SMILES)	viability at 10 µM [1]	also measured
Cc1c(C)n(C)c2ccc(C(=O)NCCN3CCCCC3)cc12 [Compound 31, 1,2,3-Trimethyl-N-(2-(piperidin-1-yl)ethyl)-1H-indole-5-carboxamide]	116%	–
CCc1c(C)[nH]c2ccc(C(=O)NCCN3CCOCC3)cc12 [Compound 32]	98%	–
CCc1c(C)[nH]c2ccc(C(=O)NCCN3CCC3)cc12 [Compound 33]	79%	–
CN1CCN(CCNC(=O)c2ccc3[nH]c4c(c3c2)CCCC4)CC1 [Compound 36]	84%	–
CCc1[nH]c2ccc(C(=O)NCCN(C)C)cc2c1C [Compound 37]	78%	–
CCc1[nH]c2ccc(C(=O)NCCN(CC)CC)cc2c1C [Compound 38]	81%	–
Cc1c(C)n(C)c2ccc(C(=O)NCCN(C(C)C)C(C)C)cc12.Cl [Compound 39]	–	Cell Viability striatal cells 3h heat shocked [1]: 117; remaining activity at 10 µM (mHTT; [2]): 58%
Cc1c(C)n(C)c2ccc(C(=O)NCCN3CCOCC3)cc12 [Compound 40]	85%	mHTT after treatment (mHTT; 10 µM, 3 h heat shock, 48 hours treatment, in comparison to untreated STHdh 111/111): 62%
Cc1c(C)n(C)c2ccc(C(=O)NCCN(C)C)cc12 [Compound 41, N-(2-(Dimethylamino)ethyl)-1,2,3-trimethyl-1H-indole-5-carboxamide]	75%	–
O=C(NCCN1CCC1)c1ccc2[nH]c3c(c2c1)CCC3 [Compound 42]	88%	–
CC(C)N(CCNC(=O)c1ccc2[nH]ccc2c1)C(C)C [Compound 43]	32%	–
Cc1c(C)n(C)c2ccc(C(=O)NCCN3CCC3)cc12 [Compound 44, N-(2-(Azetidin-1-yl)ethyl)-1,2,3-dimethyl-1H-indole-5-carboxamide]	75%	remaining activity at 10 µM (mHTT; [2]): 66%
Cc1c(C)n(C)c2ccc(C(=O)NCCN3CCN(C)CC3)cc12 [Compound 45]	81%	remaining activity at 10 µM (mHTT; [2]): 66%
Cc1c(C)n(C)c2ccc(C(=O)NCCN3CCCC3)cc12 [Compound 46, 1,2,3-Trimethyl-N-(2-(pyrrolidin-1-yl)ethyl)-1Hindole-5-carboxamide]	96%	–
Cc1[nH]c2ccc(C(=O)NCCN3CCCCC3)cc2c1C [Compound 47, 2,3-Dimethyl-N-(2-(piperidin-1-yl)ethyl)-1H-indole-5-carboxamide]	66%	–
Cc1c(C)n(C)c2ccc(C(=O)NCCN3CCCCC3C)cc12 (centres unmarked) [Compound 48]	108%	–
CCN(CC)CCNC(=O)c1ccc2[nH]ccc2c1 [Compound 52]	59%	remaining activity at 10 µM (mHTT; read-out: mHTT after treatment): 73%
Cc1c(C)n(C)c2ccc(C(=O)NCCN(C(C)C)C(C)C)cc12 [Compound 56]	–	Cell Viability striatal cells 3h heat shocked (STHdh 7/7 striatal cells): 64.1; Cell Viability striatal cells 3h heat shocked [1]: 27; remaining activity at 10 µM (mHTT; read-out: mHTT after treatment): 109%
Cc1c(C)n(C)c2ccc(C(=O)NCCN(C(C)C)C(C)C)cc12.Cl [Compound 59]	–	Cell Viability striatal cells 3h heat shocked (STHdh 7/7 striatal cells): 153.6
CC(C)N(CCNC(=O)c1ccc2[nH]ccc2c1)C(C)C [Compound 72]	–	viability at 10 µM (STHdh 7/7 striatal cells): 45.7%
C[n+]1ccc(-c2ccccc2)cc1 [MPP+, reference compound]	–	distance moved compared to naive larvae (zebrafish larvae): moved significantly shorter distances than naive larvae
